Laboratory results taken from patent US7205298B2, “Substituted triazine kinase inhibitors” (Janssen Pharmaceutica N.V., priority 2002, dated 2007).

Experiments:
[1] = tested on: A375 malignant melanoma; assay: Inhibition of cell proliferation, 14C-thymidine incorporation, A375; assay type: cell-based; details: Homo sapiens, A-375
Procedure: (§1) The ability of a test compound to inhibit the proliferation of cell growth was determined by measuring incorporation of ^14C-labelled thymidine into newly synthesized DNA within the cells. This method was used on cell lines derived from carcinomas originating from several tissues such as HeLa cervical adenocarcinoma (American Type Culture Collection (ATCC), Virginia, Cat. #CCL-2), HCT-116 colon carcinoma (CCL-247), MDA-MB-231 (Xenogen Corp.), PC-3 prostate adenocarcinoma (ATCC CRL-1435) and A375 malignant melanoma (ATCC CRL-1619).
(§2) Using this method, the effect of a compound on cell growth of cells with many different phenotypes can be determined. Cells were trypsinized and counted and 3000–8000 cells were added to each well of a 96-well CytoStar tissue culture treated scintillating microplate (Amersham #RPNQ0160) in complete medium in a volume of 100 μl. Cells were incubated for 24 hours in complete medium at 37° C. in an atmosphere containing 5% CO2. 1 μL of test compound in 100% DMSO was then added to the wells of the plate. DMSO only was added to control wells. Cells were incubated for 24 more hours in complete medium at 37° C. in an atmosphere containing 5% CO2. […] The degree of methyl ^14C-thymidine incorporation was quantified on a Packard Top Count.

[2] = target: CDK4 (Homo sapiens, UniProt P11802); assay: Kinase selectivity assay CDK4; assay type: biochemical
Procedure: Assays to test compound inhibition of other kinases were preformed using methods that measure the amount of phosphorylation of a biotinylated peptide substrate. Biotinylated peptide substrates were selected from the literature as appropriate for the enzyme being evaluated. The general procedure used to assay for kinase activity is as follows: a kinase reaction mix was prepared in 50 mM Tris-HCl pH=8, 10 mM MgCl2, 0.1 mM Na3VO4, 1 mM DTT, 10 μM ATP, 0.25–1 μM biotinylated peptide substrate, 0.2–0.8 μCuries per well ^33P-γ-ATP (2000–3000 Ci/mmol). Assay conditions vary slightly for each protein kinase, for example, insulin receptor kinase requires 10 mM MnCl2 for activity and Calmodulin-dependent protein kinase requires calmodulin and 2 mM CaCl2. The reaction mixture was dispensed into the wells of a streptavidin coated Flashplate and 1 μL test compound in 100% DMSO was added to a 100 μL reaction volume resulting in a final concentration of 1% DMSO in the reaction. Enzyme was diluted in 50 mM Tris-HCl pH=8.0, 0.1% BSA and added to each well. The reaction was incubated for one hour at 30° C. in the presence of a test compound. […] The plate was read on a scintillation counter to determine ^33P-γ-ATP incorporated into the immobilized peptide substrate. […] A maximum and minimum signal for the assay was determined on each plate. […]

[3] = tested on: MDA-MB-231; assay: Inhibition of cell proliferation, 14C-thymidine incorporation, MDA-MB-231; assay type: cell-based; details: Homo sapiens
Procedure: as §1, §2

[4] = tested on: PC-3 prostate adenocarcinoma; assay: Inhibition of cell proliferation, 14C-thymidine incorporation, PC-3; assay type: cell-based; details: Homo sapiens
Procedure: as §1, §2

Sequence of CDK4 (P11802 whole entry, species assumed): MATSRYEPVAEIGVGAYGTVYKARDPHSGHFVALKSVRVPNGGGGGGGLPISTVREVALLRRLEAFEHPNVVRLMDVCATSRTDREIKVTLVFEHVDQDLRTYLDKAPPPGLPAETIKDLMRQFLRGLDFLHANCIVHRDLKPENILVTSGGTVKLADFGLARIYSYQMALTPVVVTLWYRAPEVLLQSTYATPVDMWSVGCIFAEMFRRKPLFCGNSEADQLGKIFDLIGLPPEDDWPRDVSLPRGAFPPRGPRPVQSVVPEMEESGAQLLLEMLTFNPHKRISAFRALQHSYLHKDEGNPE
Sequence of CDK4 (P24385 whole entry partner, species assumed): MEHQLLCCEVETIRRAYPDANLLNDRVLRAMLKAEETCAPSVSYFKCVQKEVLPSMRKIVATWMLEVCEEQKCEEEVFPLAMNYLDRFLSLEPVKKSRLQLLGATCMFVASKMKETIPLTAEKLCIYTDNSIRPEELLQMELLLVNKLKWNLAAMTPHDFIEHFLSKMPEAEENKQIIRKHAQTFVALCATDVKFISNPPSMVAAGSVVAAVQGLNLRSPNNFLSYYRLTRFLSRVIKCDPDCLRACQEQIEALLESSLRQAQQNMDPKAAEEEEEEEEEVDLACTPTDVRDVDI

Compound	IC50 [1]	IC50 [2]	IC50 [3]	IC50 [4]
OCCCNc1cc(-c2ncnc(Nc3cccc(Cl)c3)n2)ccn1 [Compound 2, 3-((4-(4-((3-chlorophenyl)amino)-1,3,5-triazin-2-yl)-2-pyridinyl)amino)-1-propanol]	0.08 µM			
OCCCNc1cncc(-c2ncnc(Nc3cccc(Cl)c3)n2)c1 [Compound 1, 3-((5-(4-((3-chlorophenyl)amino)-1,3,5-triazin-2-yl)-3-pyridinyl)amino)-1-propanol]		1.35 µM	0.33 µM	0.259 µM
